Experimental findings from ChEMBL document CHEMBL5050852, “Kif18a inhibitors” (2021) are described below.

Structures are written as SMILES.

The target of this assay is T1, Kinesin-like protein KIF18A (Homo sapiens, UniProt Q8NI77).
T1 sequence (Q8NI77 whole entry): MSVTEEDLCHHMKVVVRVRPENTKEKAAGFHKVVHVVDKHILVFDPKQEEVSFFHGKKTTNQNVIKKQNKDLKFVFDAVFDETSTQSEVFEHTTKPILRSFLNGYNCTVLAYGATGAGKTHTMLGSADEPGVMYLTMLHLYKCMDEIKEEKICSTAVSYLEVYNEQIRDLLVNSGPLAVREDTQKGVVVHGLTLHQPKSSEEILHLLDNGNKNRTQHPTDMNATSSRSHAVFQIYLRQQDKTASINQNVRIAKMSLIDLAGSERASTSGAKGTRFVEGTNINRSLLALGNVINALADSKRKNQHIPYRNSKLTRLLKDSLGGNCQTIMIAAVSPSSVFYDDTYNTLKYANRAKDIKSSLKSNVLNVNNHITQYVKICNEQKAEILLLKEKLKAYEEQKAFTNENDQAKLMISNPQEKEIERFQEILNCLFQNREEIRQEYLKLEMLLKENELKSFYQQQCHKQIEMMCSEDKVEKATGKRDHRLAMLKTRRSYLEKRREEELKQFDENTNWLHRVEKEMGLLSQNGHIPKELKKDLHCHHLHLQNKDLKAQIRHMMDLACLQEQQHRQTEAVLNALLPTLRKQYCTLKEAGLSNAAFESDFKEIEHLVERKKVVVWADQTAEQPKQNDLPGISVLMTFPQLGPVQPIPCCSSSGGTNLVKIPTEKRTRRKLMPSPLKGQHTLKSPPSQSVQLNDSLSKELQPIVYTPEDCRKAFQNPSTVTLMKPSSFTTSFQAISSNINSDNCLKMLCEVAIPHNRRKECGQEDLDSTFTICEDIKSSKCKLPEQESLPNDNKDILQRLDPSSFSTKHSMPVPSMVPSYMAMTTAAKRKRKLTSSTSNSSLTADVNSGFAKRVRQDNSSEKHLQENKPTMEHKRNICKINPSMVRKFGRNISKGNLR
As to the kind of experiment: Inhibition of recombinant His-tagged human KIF18A (1 to 467 residues) expressed in baculovirus expression system assessed as inhibition of microtubule-stimulated ATPase activity preincubated for 15 mins followed by ATP addition and further incubated for 15 mins and measured after 40 mins by ADP-Glo reagent based assay. Background: In ADP-Glo the light output rises with the ADP produced.
Take `CCS(=O)(=O)Cc1ccc(C(=O)Nc2cccc(S(=O)(=O)NC(C)(C)C)c2)c(N2CCC3(CC2)CC3)c1`: the IC50 amounted to 75 nM. As for `CC(C)(CO)Nc1cccc(NC(=O)c2ccc(S(=O)(=O)NC3(C)COC3)cc2N2CCC3(CC2)CC3)c1`, the IC50 is 198 nM. Regarding `CC(C)(C)NS(=O)(=O)c1cccc(NC(=O)c2ccc(NS(=O)(=O)CCO)cc2N2CCC3(CC2)CC3)c1`, the IC50 was determined as 51 nM.

As to `C[C@@H]1CN(c2cc(F)cc(NC(=O)c3ccc(NS(=O)(=O)CCO)cc3N3CCC4(CC3)CC4)c2)CCO1`, the half-inhibitory concentration (IC50) came out at 131 nM.

Regarding `CC(C)(C)NS(=O)(=O)c1cccc(NC(=O)c2ccc(CS(=O)(=O)C(C)(C)C)cc2N2CCC3(CC2)CC3)c1`, the half-maximal inhibitory concentration (IC50) was determined as 76 nM.

The term IC50 denotes the concentration needed to halve the response being measured.
